Reference: ChEMBL document CHEMBL1145733, “N-isonicotinoyl-(L)-4-aminophenylalanine derivatives as tight binding VLA-4 antagonists” (Bioorg Med Chem Lett, 2003)

What was measured:
Integrin alpha-4/beta-1 [1] = target: T1, Integrin alpha-4/beta-1 (Homo sapiens, UniProt P05556+P13612); assay: Inhibition of [125I]VCAM-Ig binding to VLA-4 of Jurkat cells in the presence of [Ca2+]; format: cell-based
Integrin alpha-4/beta-1 [2] = target: T1, Integrin alpha-4/beta-1; assay: Dissociation from Very late antigen 4 (VLA-4); format: protein-complex assay
Integrin alpha-4/beta-1 [3] = target: T1, Integrin alpha-4/beta-1; assay: Inhibition of [125I]VCAM-Ig binding to VLA-4 of Jurkat cells in the presence of Mn2+; format: cell-based
Integrin alpha-4/beta-1 [4] = target: T1, Integrin alpha-4/beta-1; assay: Inhibition of VLA-4 binding in Jurkat cells in the presence of Mg2+; format: cell-based
Rattus norvegicus = assay: Unbound plasma was determined in Sprague-Dawley rats at a dose of 1 mg/kg by iv administration; format: ADME, organism-based; design: dose 1 mg/kg, route intravenous; conditions: in vivo
[5] = Half life period was determined in Sprague-Dawley rats at a dose of 1 mg/kg by iv administration; format: ADME, organism-based; design: dose 1 mg/kg, route intravenous; conditions: rat, in vivo
[6] = Oral bioavailability in rhesus monkey at a dose of 2 mg/kg by po administration; format: ADME, organism-based, Macaca mulatta; conditions: in vivo
[7] = Plasma clearance was determined in rhesus monkey at a dose of 1 mg/kg by iv administration; format: ADME, organism-based; design: dose 1 mg/kg, route intravenous; conditions: cercopithecidae, read-out: Clp
[8] = Oral bioavailability in Beagle dog at a dose of 2 mg/kg by po administration; format: ADME, organism-based, Canis lupus familiaris; conditions: in vivo
[9] = Plasma clearance was determined in Beagle dog at a dose of 1 mg/kg by iv administration; format: ADME, organism-based, Canis lupus familiaris; design: dose 1 mg/kg, route intravenous; conditions: read-out: Clp
[10] = Half life period was determined in rhesus monkey at a dose of 1 mg/kg by iv administration; format: ADME, organism-based; design: dose 1 mg/kg, route intravenous; conditions: cercopithecidae, in vivo
[11] = Unbound plasma was determined in rhesus monkey at a dose of 1 mg/kg by iv administration; format: ADME, organism-based; design: dose 1 mg/kg, route intravenous; conditions: cercopithecidae, in vivo
[12] = Half life period was determined in Beagle dog at a dose of 1 mg/kg by iv administration; format: ADME, organism-based, Canis lupus familiaris; design: dose 1 mg/kg, route intravenous; conditions: in vivo
Canis familiaris = assay: Unbound plasma was determined in Beagle dog at a dose of 1 mg/kg by iv administration; format: ADME, organism-based, Canis lupus familiaris; design: dose 1 mg/kg, route intravenous; conditions: in vivo
[13] = Plasma clearance was determined in Sprague-Dawley rats at a dose of 1 mg/kg by iv administration; format: ADME, organism-based; design: dose 1 mg/kg, route intravenous; conditions: rat, read-out: Clp
[14] = Oral bioavailability in Sprague-Dawley rats at a dose of 2 mg/kg by po administration; format: ADME, organism-based; conditions: rat, in vivo

T1 sequence (P05556 whole entry): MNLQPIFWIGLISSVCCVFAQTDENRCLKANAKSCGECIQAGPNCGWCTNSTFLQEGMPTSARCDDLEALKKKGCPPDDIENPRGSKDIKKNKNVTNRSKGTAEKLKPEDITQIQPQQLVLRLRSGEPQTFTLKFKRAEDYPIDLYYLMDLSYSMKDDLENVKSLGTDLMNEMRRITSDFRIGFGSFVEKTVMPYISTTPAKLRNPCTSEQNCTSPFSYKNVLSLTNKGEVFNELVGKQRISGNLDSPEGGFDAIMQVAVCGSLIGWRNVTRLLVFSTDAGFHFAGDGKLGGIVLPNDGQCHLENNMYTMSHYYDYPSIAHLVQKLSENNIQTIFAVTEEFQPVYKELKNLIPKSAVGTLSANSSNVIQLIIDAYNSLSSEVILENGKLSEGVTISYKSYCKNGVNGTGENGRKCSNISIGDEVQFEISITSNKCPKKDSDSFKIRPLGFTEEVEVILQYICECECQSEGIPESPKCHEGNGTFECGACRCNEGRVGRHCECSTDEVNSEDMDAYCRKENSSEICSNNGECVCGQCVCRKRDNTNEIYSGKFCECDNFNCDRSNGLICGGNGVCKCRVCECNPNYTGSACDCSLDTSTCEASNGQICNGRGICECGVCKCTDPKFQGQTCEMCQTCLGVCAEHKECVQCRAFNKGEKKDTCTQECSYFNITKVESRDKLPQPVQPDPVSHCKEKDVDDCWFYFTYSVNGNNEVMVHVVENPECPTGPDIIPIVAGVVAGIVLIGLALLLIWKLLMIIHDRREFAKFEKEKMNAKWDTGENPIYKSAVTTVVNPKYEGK
T1 sequence (P13612 whole entry): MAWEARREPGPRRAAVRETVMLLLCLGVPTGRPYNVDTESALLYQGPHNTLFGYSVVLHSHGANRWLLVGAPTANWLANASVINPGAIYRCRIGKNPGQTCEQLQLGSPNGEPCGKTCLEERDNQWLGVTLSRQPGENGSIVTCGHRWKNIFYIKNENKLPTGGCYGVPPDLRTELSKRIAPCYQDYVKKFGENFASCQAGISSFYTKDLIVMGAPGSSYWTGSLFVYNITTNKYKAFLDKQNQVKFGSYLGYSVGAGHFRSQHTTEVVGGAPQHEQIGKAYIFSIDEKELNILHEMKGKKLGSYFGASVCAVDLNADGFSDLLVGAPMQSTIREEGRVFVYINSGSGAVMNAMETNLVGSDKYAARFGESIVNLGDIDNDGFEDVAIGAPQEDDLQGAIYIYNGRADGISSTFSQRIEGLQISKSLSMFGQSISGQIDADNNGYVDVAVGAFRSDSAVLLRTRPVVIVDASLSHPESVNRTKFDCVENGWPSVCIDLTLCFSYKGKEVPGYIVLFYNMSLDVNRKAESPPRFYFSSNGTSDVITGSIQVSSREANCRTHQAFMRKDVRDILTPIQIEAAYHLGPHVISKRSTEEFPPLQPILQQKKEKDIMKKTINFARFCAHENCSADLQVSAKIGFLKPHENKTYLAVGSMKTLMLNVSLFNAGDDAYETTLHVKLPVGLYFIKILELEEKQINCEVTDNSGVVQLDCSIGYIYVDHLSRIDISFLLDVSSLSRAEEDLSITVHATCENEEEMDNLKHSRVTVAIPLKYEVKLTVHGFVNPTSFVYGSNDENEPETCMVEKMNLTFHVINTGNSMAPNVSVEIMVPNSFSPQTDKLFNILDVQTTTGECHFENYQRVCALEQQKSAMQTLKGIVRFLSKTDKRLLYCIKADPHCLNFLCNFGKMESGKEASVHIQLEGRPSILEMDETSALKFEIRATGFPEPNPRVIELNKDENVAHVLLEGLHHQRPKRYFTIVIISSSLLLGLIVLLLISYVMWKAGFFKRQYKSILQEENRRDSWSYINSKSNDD

SMILES | IC50 (Integrin alpha-4/beta-1 [1]) [nM] | Bound (Integrin alpha-4/beta-1 [2]) [%] | IC50 (Integrin alpha-4/beta-1 [3]) [nM] | IC50 (Integrin alpha-4/beta-1 [4]) [nM] | further results
COc1ccnc(Cl)c1C(=O)Nc1ccc(C[C@H](NC(=O)[C@]2(C)CCCN2S(=O)(=O)c2cc(Cl)cc(Cl)c2)C(=O)O)cc1 | 0.08 | 40 | 0.13 | 0.08 | –
O=C(Nc1ccc(C[C@H](NC(=O)[C@@H]2CCCN2S(=O)(=O)c2ccccc2)C(=O)O)cc1)c1c(Cl)cncc1Cl | 0.13 | 19 | 0.15 | 0.13 | –
COc1cc(CN2CCCC2)cc(OC)c1-c1ccc(C[C@H](NC(=O)[C@]2(C)CCCN2S(=O)(=O)c2cc(Cl)cc(Cl)c2)C(=O)O)cc1 | 0.09 | 43 | 0.1 | 0.09 | –
C[C@@]1(C(=O)N[C@@H](Cc2ccc(NC(=O)c3c(Cl)ccnc3Cl)cc2)C(=O)O)CCCN1S(=O)(=O)c1cc(Cl)cc(Cl)c1 | 0.11 | 57 | 0.11 | 0.11 | Unbound plasma (Rattus norvegicus): 0.2%; half-life [5]: 1.7 h; bioavailability [6]: 4%; clearance [7]: 7.5 mL/min/kg; bioavailability [8]: 0.4%; clearance [9]: 32 mL/min/kg; half-life [10]: 2.3 h; Unbound plasma [11]: 0.15%; half-life [12]: 0.73 h; Unbound plasma (Canis familiaris): 2.2%; clearance [13]: 1.9 mL/min/kg; bioavailability [14]: 1.6%
C[C@@]1(C(=O)N[C@@H](Cc2ccc(NC(=O)c3cnccc3Cl)cc2)C(=O)O)CCCN1S(=O)(=O)c1cc(Cl)cc(Cl)c1 | 0.21 | 26 | 0.14 | 0.21 | –
O=C(Nc1ccc(C[C@H](NC(=O)[C@@H]2CCCN2S(=O)(=O)c2cccc(Cl)c2)C(=O)O)cc1)c1c(Cl)cncc1Cl | 0.1 | 37 | 0.09 | 0.1 | –

Continued by falling IC50 (Integrin alpha-4/beta-1 [1]), values first:

IC50 (Integrin alpha-4/beta-1 [1]) [nM] | Bound (Integrin alpha-4/beta-1 [2]) [%] | IC50 (Integrin alpha-4/beta-1 [3]) [nM] | IC50 (Integrin alpha-4/beta-1 [4]) [nM] | SMILES | further results
1.56 | 0 | 0.36 | 1.56 | CSc1cnccc1C(=O)Nc1ccc(C[C@H](NC(=O)[C@]2(C)CCCN2S(=O)(=O)c2cc(Cl)cc(Cl)c2)C(=O)O)cc1 | –
0.31 | 0 | 0.16 | 0.31 | C[n+]1ccc(C(=O)Nc2ccc(C[C@H](NC(=O)[C@]3(C)CCCN3S(=O)(=O)c3cc(Cl)cc(Cl)c3)C(=O)O)cc2)c(Cl)c1 | –
0.25 | 12 | 0.27 | 0.25 | C[C@@]1(C(=O)N[C@@H](Cc2ccc(NC(=O)c3cccnc3)cc2)C(=O)O)CCCN1S(=O)(=O)c1cc(Cl)cc(Cl)c1 | –
0.15 | 15 | 0.21 | 0.15 | C[C@@]1(C(=O)N[C@@H](Cc2ccc(NC(=O)c3c(Cl)cccc3Cl)cc2)C(=O)O)CCCN1S(=O)(=O)c1cc(Cl)cc(Cl)c1 | –
0.1 | 61 | 0.19 | 0.1 | C[n+]1cc(Cl)c(C(=O)Nc2ccc(C[C@H](NC(=O)[C@]3(C)CCCN3S(=O)(=O)c3cc(Cl)cc(Cl)c3)C(=O)O)cc2)c(Cl)c1 | –
0.09 | 1 | – | 0.09 | COc1cccc(OC)c1-c1ccc(C[C@H](NC(=O)[C@]2(C)CCCN2S(=O)(=O)c2cc(Cl)cc(Cl)c2)C(=O)O)cc1 | –
0.08 | 61 | 0.1 | 0.08 | C[C@@]1(C(=O)N[C@@H](Cc2ccc(NC(=O)C3=C(Cl)CC(=O)N=C3Cl)cc2)C(=O)O)CCCN1S(=O)(=O)c1cc(Cl)cc(Cl)c1 | –
0.07 | 62 | 0.1 | 0.07 | O=C(Nc1ccc(C[C@H](NC(=O)[C@@H]2CCCN2S(=O)(=O)c2cc(Cl)cc(Cl)c2)C(=O)O)cc1)c1c(Cl)cncc1Cl | –
